The subject of experiment [1] is Erisyphe graminis f. sp. tritici. Kind of experiment: In vivo test on Erisyphe graminis f. sp. tritici (powdery mildew of wheat), preventive spray. Particulars: Triticum aestivum; dose of 500 g/ha; wheat plants (Audace variety); contaminated 24 hours after treatment; grading 7 to 14 days after contamination vs control plants; read-out: good (at least 50%) or total protection. As for the experimental part: An aqueous suspension, at a concentration of 1.5%, of the active material tested is obtained by grinding it finely in a formulation of concentrated suspension type. This aqueous suspension is then diluted in water so as to obtain the desired active material concentration. Wheat plants (Audace variety) in starter cups, sown on 50/50 peat soil-pozzulana substrate and grown at 12° C., are treated at the 1-leaf stage (10 cm tall) by spraying with the aqueous suspension described above. Plants, used as controls, are treated with an aqueous solution not containing the active material. After 24 hours, the plants are contaminated by dusting them with Erisyphe graminis f. sp. tritici spores, the dusting being carried out using diseased plants.

Experiment [2] relates to Puccinia recondita. Kind of experiment: In vivo test on Puccinia recondita (wheat brown rust), preventive spray. The following applies: 240 h, dose of 500 g/ha, wheat plants (Scipion variety), contaminated 24 hours after treatment, grading 10 days after contamination vs control plants, read-out: good (at least 50%) protection. As for the experimental part:
An aqueous suspension, at a concentration of 1.5%, of the active material tested is obtained by grinding it finely in a formulation of concentrated suspension type, This aqueous suspension is then diluted in water so as to obtain the desired active material concentration. Wheat plants (Scipion variety) in starter cups, sown on a 50/50 peat soil-pozzolana substrate and grown at 12° C., are treated at the 1-leaf stage (10 cm tall) by spraying with the aqueous suspension described above. Plants, used as controls, are treated with an aqueous solution not containing the active material.
After 24 hours, the plants are contaminated by spraying them with an aqueous suspension of Puccinia recondita spores (150,000 spores per mL). The contaminated wheat plants are incubated for 24 hours at about 20° C. and at 100% relative humidity, and then for 10 days at 70% relative humidity.
Grading is carried out 10 days after the contamination, in comparison with the control plants. Under these conditions, good (at least 50%) protection is observed, at a dose of 500 g/ha, with the following compounds described as example: 6, 10, 11, 12, 13, 14, 15, 28, 29, 30, 31, 34, 37, 42, 45, 46, 50, 51, 52, 62, 72.

Experiment [3] concerns Septoria tritici. Kind of experiment: In vivo test on Septoria tritici (leaf spot of wheat), preventive spray. The following applies: Zymoseptoria tritici; dose of 500 g/ha; wheat plants (Scipion variety); contaminated 24 hours after treatment; grading 15 to 20 days after contamination vs control plants; read-out: good (at least 50%) protection. As to the method:
An aqueous suspension, at a concentration of 1.5%, of the active material tested is obtained by grinding it finely in a formulation of concentrated suspension type. This aqueous suspension is then diluted in water so as to obtain the desired active material concentration. Wheat plants (Scipion variety) in starter cups, sown on a 50/50 peat soil-pozzolana substrate and grown at 12° C., are treated at the 1-leaf stage (10 cm tall) by spraying with the aqueous suspension described above. Plants, used as controls, are treated with an aqueous solution not containing the active material.
After 24 hours, the plants are contaminated by spraying them with an aqueous suspension of Septoria tritici spores (500,000 spores per mL). The spores are collected from a 15-day-old culture and are suspended in a nutrient solution composed of: • 1.5 g/L of gelatine • 0.5 g/L of sodium oleate • 24 g/L of PDB
The contaminated wheat plants are incubated for 72 hours at about 20° C. and at 100% relative humidity, and then for 15 days at 80% relative humidity.

Molecules are shown by their SMILES. Bounds are passed on as bounds.

The record followed here is patent US7084163B2, “Heterocyclic carboxamides and their use as fungicides” (Bayer Cropscience S.A., priority 2001, dated 2006).

Consider `C=CCOC(=O)Nc1cn(C)c(C(=O)Nc2ccc(Oc3ccc(C(F)(F)F)cc3)cc2)c1OC` [compound 5, 1-Methyl-4-[(allyloxycarbonyl)amino]-3-methoxy-1H—N-para-[4-(trifluoromethyl)phenoxy]phenyl-pyrrole-2-carboxamide], for which the pest or weed control at 500 g/ha in experiment [1] is ≥ 50%.

On to `CCOC(=O)c1c(OC)c(C(=O)Nc2ccc(Oc3ccc(C(F)(F)F)cc3)cc2)cn1C` [compound 12, 1-methyl-2-ethoxycarbonyl-3-methoxy-1H-N-para-[4-(trifluoromethyl)phenoxy]phenyl-pyrrole-4-carboxamide], for which the pest or weed control at 500 g/ha in experiment [1] and in experiment [2] was ≥ 50% throughout. With `Nc1nccc(C(=O)Nc2ccc(Oc3ccc(C(F)(F)F)cc3)cc2)c1O` [compound 19, [4-(Trifluoromethyl)phenoxy]anilino-(2-amino-3-hydroxy)pyridyl-4-carboxamide], in experiment [1], the pest or weed control at 500 g/ha is ≥ 50%.

Consider `COC(=O)Nc1noc(C(=O)Nc2ccc(Oc3ccc(C(F)(F)F)cc3)cc2)c1OC` [compound 28], for which the pest or weed control at 500 g/ha in experiment [1] and in experiment [2] was ≥ 50% each time. As to `COC(=O)c1onc(C(=O)Nc2ccc(Oc3ccc(C(F)(F)F)cc3)cc2)c1OC` [compound 39], the pest or weed control at 500 g/ha in experiment [3] is ≥ 50%. Turning to `Nc1cc(C(=O)Nc2ccc(Oc3ccc(C(F)(F)F)cc3)cc2)ns1` [compound 42, 5-Amino-N-para-[4-(trifluoromethyl)phenoxy]phenyl-isothiazole-3-carboxamide], the pest or weed control at 500 g/ha in experiment [1], in experiment [3] and in experiment [2] was ≥ 50% in each case. Regarding `Cn1nc(C(=O)Nc2ccc(Oc3cccc(C(F)(F)F)c3)cc2)c(O)c1N` [compound 44, 1-Methyl-4-hydroxy-5-amino-N-para-[3-(trifluoromethyl)phenoxy]phenyl pyrazole-3-carboxamide], in experiment [1], the pest or weed control at 500 g/ha is ≥ 50%.

As for `COc1c(C(N)=O)cncc1C(=O)Nc1ccc(Oc2ccc(C(F)(F)F)c(Cl)c2)cc1` [compound 50, 5-aminocarbonyl-4-methoxy-N-para-[3-chloro-4-(trifluoromethyl)phenoxy]phenyl nicotinamide], the pest or weed control at 500 g/ha in experiment [3] and in experiment [2] was ≥ 50% throughout. As for `Cc1nc(C)c(-n2cccc2)c(O)c1C(=O)Nc1ccc(OC(F)(F)C(F)F)cc1` [compound 55, 2,6-dimethyl-5-pyrrol-1-yl-4-hydroxy-N-para-(1,1,2,2 tetrafluoroethoxy)phenyl nicotinamide], the pest or weed control at 500 g/ha in experiment [1] is ≥ 50%. On the same count and under the same terms, next, `CC(C)N1CC(C(=O)Nc2ccc(Oc3ccc(C(F)(F)F)cc3)cc2)=C(O)C1=O` [compound 73, N-(4-(4-Trifluormethyl)phenoxy)phenyl-[(1-isopropyl-4-hydroxy-5-dioxo-2,5-dihydro-1H)-pyrrol]-3-carboxamide]: ≥ 50%.
